Marks after values point to notes of the source that are not given here.
How the values were obtained:
[1] = tested on: Candida albicans ATCC10231; experiment: Broth microdilution MIC/MMC; assay type: cell-based
Summary of the method: (§1)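 Twofold broth microdilution in MHB (bacteria) or SDB (yeasts), final range 2048–0.125 μg/mL. Inocula were 1 × 10^6 CFU/mL for bacteria, incubated at 37 °C for 24 h with shaking, and 1 × 10^5 spores/mL for yeasts (C. albicans 30 °C 48 h; C. neoformans 30 °C 72 h). MIC was the lowest concentration with no visible growth, in triplicate.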

[2] = tested on: Cryptococcus neoformans H99; experiment: Broth microdilution MIC/MMC; assay type: cell-based
Summary of the method: as §1

[3] = tested on: methicillin-resistant Staphylococcus aureus 03 (MRSA03); experiment: Broth microdilution MIC/MMC; assay type: cell-based
Summary of the method: as §1

[4] = tested on: tested bacteria and yeasts; experiment: Broth microdilution MIC/MMC, summary over all strains; assay type: cell-based; conditions: against specific microorganism; cutoff points of ref 33
Summary of the method: as §1

[5] = DPPH free radical scavenging assay; conditions: mean ± SD
Description: The free radical scavenging activity of extracts and compounds was evaluated according to the described method. The EC50 (μg/mL), which is the amount of sample necessary to inhibit by 50% the absorbance of free radical DPPH, was calculated. Vitamin C was used as a standard control. All the analyses were carried out in triplicate and repeated three times.

[6] = Gallic acid equivalent antioxidant capacity (GEAC) assay; conditions: ABTS radical, 420 nm, 240 s; mean ± SD
Summary of the method: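 Purified Sclerotinia sclerotiorum laccase oxidises ABTS in acetate buffer pH 5.0 (100 mM); ABTS●+ read at 420 nm after 240 s. Samples at 10–800 μg/mL (extracts) or 12.5–200 μg/mL (isolated compounds) in assay. Values expressed as gallic acid equivalents from a 0–84 μM gallic acid calibration curve; triplicates, three repeats.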

[7] = tested on: superoxide dismutase (SOD); experiment: Superoxide dismutase (SOD) activity in treated bacterial cell lysates; assay type: cell-based; conditions: Staphylococcus aureus ATCC25923 and MRSA03, MIC and 1/2xMIC, 24 h
Description: (3) Antioxidant Enzyme Activities. For evaluation of catalase and superoxide dismutase (SOD) activities, Staphylococcus aureus ATCC25923 and MRSA03 (1.5 × 10^8 CFU/mL, 500 μL) cultures from the late exponential growth phase were treated with MIC and 1/2xMIC of the methanol extract (500 μL), compound 5 (500 μL), and oxacillin (500 μL) solutions and incubated at 37°C for 24 h. The suspension was centrifuged at 3000 rpm for 5 min to separate the supernatant. The pellet was washed twice with PBS and resuspended in 500 μL of cell lysate buffer (1 mM EDTA, 10 Mm Tris-HCl, 0.1% Triton-X-100, and 150 mM NaCl) and incubated at 37°C for 1 h. Contents were then centrifuged at 3000 rpm for 5 min, and the supernatant was collected for enzyme activity assays.
Superoxide dismutase (SOD) activity. This was determined using a kit (Sigma, catalogue no. 19160) in the cell lysate. […] The reaction mixture was incubated in the dark at 37°C for 20 min, and the absorbance was read at 450 nm on a BioTek Synergy 2 multiplate reader. The SOD activity was calculated based on the following formula: [(ABlank1–ABlank3) − (ASample–ABlank2)/(ABlank1–ABlank3) × 100], where Blank 1 contains ultrapure water, WST solution, and enzyme solution, Blank 2 contains sample solution, WST solution, and dilution buffer, and Blank 3 contains ultrapure water, WST solution, and dilution buffer.

4,7,2′-trihydroxy-4′-methoxyisoflavanol [compound 5]
MMC ([1]; Candida albicans ATCC10231): 16 µg/mL
MMC/MIC ([1]; Candida albicans ATCC10231): 2
MIC ([1]; Candida albicans ATCC10231, 48 h, 30°C): 8 µg/mL
MMC ([2]; Cryptococcus neoformans H99): 8 µg/mL
MMC/MIC ([2]; Cryptococcus neoformans H99): 1
MIC ([2]; Cryptococcus neoformans H99, 72 h, 30°C): 8 µg/mL
MMC ([3]; MRSA03): 32 µg/mL
MMC/MIC ([3]; MRSA03): 2
MIC ([3]; MRSA03, 24 h, 37°C): 16 µg/mL
antimicrobial activity class of pure compounds by cutoff points [4]: significant/moderate
DPPH free radical scavenging activity (EC50) [5]: 11.58 ± 0.73^f μg/mL
Gallic acid equivalent antioxidant capacity (GEAC) [6]: 61.05 ± 0.90^h μg/mL
SOD activity vs untreated cell lysates [7]: significant concentration-dependent decreases
